Assays:
GPR158 Y269A mutant = target: T1, GPR158 Y269A mutant (Homo sapiens, UniProt Q5T848, Y269A); test: Radioligand binding assay on GPR158 mutant Y269A
T1 sequence (Q5T848 24-1215 Y269A): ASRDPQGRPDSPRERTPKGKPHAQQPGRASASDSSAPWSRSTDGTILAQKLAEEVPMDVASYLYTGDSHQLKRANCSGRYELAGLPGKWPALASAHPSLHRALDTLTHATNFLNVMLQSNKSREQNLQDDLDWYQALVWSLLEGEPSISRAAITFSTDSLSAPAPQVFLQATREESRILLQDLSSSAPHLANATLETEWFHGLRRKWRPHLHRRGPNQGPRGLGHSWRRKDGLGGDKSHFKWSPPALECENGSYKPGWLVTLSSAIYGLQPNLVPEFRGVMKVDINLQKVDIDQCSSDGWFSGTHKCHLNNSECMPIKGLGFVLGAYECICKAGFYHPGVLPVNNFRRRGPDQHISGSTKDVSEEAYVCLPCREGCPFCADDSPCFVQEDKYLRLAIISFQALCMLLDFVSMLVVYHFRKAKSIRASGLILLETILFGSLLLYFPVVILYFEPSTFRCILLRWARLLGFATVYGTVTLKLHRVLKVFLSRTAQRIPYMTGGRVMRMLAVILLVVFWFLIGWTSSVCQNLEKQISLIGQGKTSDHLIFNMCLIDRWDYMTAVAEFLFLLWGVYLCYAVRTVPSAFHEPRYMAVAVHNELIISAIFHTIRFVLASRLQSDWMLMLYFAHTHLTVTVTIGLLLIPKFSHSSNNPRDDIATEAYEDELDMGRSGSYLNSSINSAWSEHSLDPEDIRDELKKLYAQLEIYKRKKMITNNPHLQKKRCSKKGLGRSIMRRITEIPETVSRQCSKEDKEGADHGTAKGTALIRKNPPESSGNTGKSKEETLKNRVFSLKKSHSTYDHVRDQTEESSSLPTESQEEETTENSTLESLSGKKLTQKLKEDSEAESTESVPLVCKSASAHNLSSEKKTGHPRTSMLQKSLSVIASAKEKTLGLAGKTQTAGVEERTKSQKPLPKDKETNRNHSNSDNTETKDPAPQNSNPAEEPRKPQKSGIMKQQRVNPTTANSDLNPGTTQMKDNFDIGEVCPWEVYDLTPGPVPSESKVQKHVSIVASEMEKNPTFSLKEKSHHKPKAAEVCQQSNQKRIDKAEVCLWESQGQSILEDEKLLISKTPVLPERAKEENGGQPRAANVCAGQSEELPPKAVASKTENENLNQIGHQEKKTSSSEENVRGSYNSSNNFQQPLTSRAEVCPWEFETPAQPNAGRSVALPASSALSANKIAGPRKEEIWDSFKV
Text: (§1) FIGS. 11A-11G. Probing Cache domain of GPR158 as a ligand binding site A) Computational docking of glycine into putative ligand binding pocket on GPR158 Cache domain. Glycine and directly interacting residues are shown as sticks. Hydrogen bonds and van der Waals interactions are shown as dotted lines. B) Diagram showing interactions in the docked model of glycine against GPR158 Cache domain. Hydrogen bonds are shown as dashed lines, van der Waals interactions are shown as intersecting semicircles, and the secondary structural context of Ser266 and Tyr269 is shown as an arc. Dagger indicates a residue implicated in glycine binding in 11A. C) Radioligand binding assay of ^3H-glycine in cells expressing GPR158 mutants. Data shown mean±s.e.m. of 3 independent experiments, *p<0.05, ns=p>0.05 one-way ANOVA. D) Functional evaluation of GPR158 mutants in GAP BRET assay. Error bars are mean±s.e.m. of 3 independent experiments in triplicate. *p<0.05, **p<0.01, ***p<0.001, ****p<0.0001, ns=p>0.05, two-way ANOVA Columns with no fill (Ctrl), columns with angled-line fill (Glycine) E) Quantification of glycine inhibitory effect on kGAP normalized to the effect seen with WT receptor. […]
Whole cell binding was performed using cDNA of GPR158-venus or each GPR158-venus mutant or empty pcDNA3.1+ for ctrl cells. […] Finally radioactivity was measured using the liquid scintillation analyzer Tri-Carb 4910 TR.

[1] = tested on: GPR158 R173A, E271A, and Y269A mutants; test: GAP BRET assay on GPR158 mutants defective in glycine binding; assay type: cell-based, human
Text: as §1, with “C) Radioligand binding assay of ^3H-glycine in cells expressing GPR158 mutants. Data shown mean±s.e.m. of 3 independent experiments, *p<0.05, ns=p>0.05 one-way ANOVA. D) Functional evaluation of GPR158 mutants in GAP BRET assay.” left out
Cellular measurements of BRET between Venus-Gβ1γ2 and masGRK3ct-Nluc were performed to examine GAP activity of RGS protein in living cells (described in detail in Masuho et al., 2015 (40)). […] The BRET signal was determined by calculating the ratio of the light emitted by the Venus-Gβ1γ2 (535 nm with a 30 nm band path width) over the light emitted by the masGRK3ct-Nluc (475 nm with a 30 nm band path width). […]

[^3H]-glycine binding (GPR158 Y269A mutant) | SMILES | glycine inhibition of GAP activity of RGS7/Gβ5 [1]
near complete loss | NCC(=O)O [^3H-glycine, [^3H]-glycine] | –
– | NCC(=O)O [glycine] | lost an ability to inhibit the GAP-activity of RGS7/Gβ5

Source: patent publication US20260376293A1, “METHODS FOR STUDYING GPR158 PHARMACOLOGY AND IDENTIFICATION OF ITS LIGANDS” (UNIVERSITY OF FLORIDA RESEARCH FOUNDATION, INCORPORATED, priority 2022, published 2026)
